Values after ≈ are worked out from the molar mass of the structure shown. Active and inactive are the calls of the source. The rule behind the calls is not given here. Where only a bound is given, the exact number is not on record here.

A short description of series [1]: Semi-thermodynamic aqueous solubility of compound. Type of series: physicochemical. To be noted: buffer; read-out: Therm_solubility.
The test system of series [2] is HL-60. Nature of the series: Induction of differentiation in human HL-60 cells assessed as reduction in cell number at 10 nM incubated for 4 days by acridine orange/DAPI staining based analysis. Type of series: functional. To be noted: time 4.0 day.
For series [3], the system named is THP-1. The experiment in a line: Induction of differentiation in human THP-1 cells assessed as reduction in cell number at 10 nM incubated for 4 days by acridine orange/DAPI staining based analysis. The series is classed as functional. To be noted: time 4.0 day.
The test system of series [4] is OCI-AML-3. The experiment in a line: Induction of differentiation in human OCI-AML-3 cells assessed as reduction in cell number at 10 nM incubated for 4 days by acridine orange/DAPI staining based analysis. The series is classed as functional. To be noted: time 4.0 day.
The test system of series [5] is KG-1. The experiment in a line: Induction of differentiation in human KG-1 cells assessed as reduction in cell number at 10 nM incubated for 4 days by acridine orange/DAPI staining based analysis. Type of series: functional. To be noted: time 4.0 day.
The subject of series [6] is ME-1. Nature of the series: Induction of differentiation in human ME-1 cells assessed as reduction in cell number at 10 nM incubated for 4 days by acridine orange/DAPI staining based analysis. The series is classed as functional. To be noted: time 4.0 day.
Series [7] concerns Kasumi 1. Nature of the series: Induction of differentiation in human Kasumi 1 cells assessed as reduction in cell number at 10 nM incubated for 4 days by acridine orange/DAPI staining based analysis. The series is classed as functional. To be noted: time 4.0 day.
Series [8] in a line: Metabolic stability in mouse S9 fraction assessed as compound remaining measured after 45 mins in absence of NADPH and […]. To be noted: read-out: Stability. The series is classed as ADME, subcellular.
In series [9] the test system is HL-60. The experiment in a line: Induction of differentiation in human HL-60 cells assessed as upregulation of CD11b response at 10 uM incubated for 4 days by flow cytometry analysis relative to control. Type of series: functional. To be noted: time 4 day.
The test system of series [10] is HL-60. The experiment in a line: Induction of differentiation in human HL-60 cells assessed as upregulation of CD11b response at 1 uM incubated for 4 days by flow cytometry analysis relative to control. The series is classed as functional. To be noted: time 4 day.
Series [11] concerns HL-60. Nature of the series: Induction of differentiation in human HL-60 cells assessed as reduction in cell number at 10 uM incubated for 4 days by acridine orange/DAPI staining based analysis. Type of series: functional. To be noted: time 4.0 day.
For series [12], the system named is THP-1. Nature of the series: Induction of differentiation in human THP-1 cells assessed as reduction in cell number at 10 uM incubated for 4 days by acridine orange/DAPI staining based analysis. Type of series: functional. To be noted: time 4.0 day.
The test system of series [13] is OCI-AML-3. Nature of the series: Induction of differentiation in human OCI-AML-3 cells assessed as reduction in cell number at 10 uM incubated for 4 days by acridine orange/DAPI staining based analysis. Type of series: functional. To be noted: time 4.0 day.
Series [14] concerns KG-1. The experiment in a line: Induction of differentiation in human KG-1 cells assessed as reduction in cell number at 10 uM incubated for 4 days by acridine orange/DAPI staining based analysis. Type of series: functional. To be noted: time 4.0 day.
Series [15] deals with ME-1. The experiment in a line: Induction of differentiation in human ME-1 cells assessed as reduction in cell number at 10 uM incubated for 4 days by acridine orange/DAPI staining based analysis. Type of series: functional. To be noted: time 4.0 day.
Series [16] concerns Kasumi 1. Nature of the series: Induction of differentiation in human Kasumi 1 cells assessed as reduction in cell number at 10 uM incubated for 4 days by acridine orange/DAPI staining based analysis. Type of series: functional. To be noted: time 4.0 day.
Series [17] relates to HL-60. The experiment in a line: Induction of morphological changes in human HL-60 cells assessed as variation in cell size at 10 uM. Type of series: functional, cell-based.
The test system of series [18] is HL-60. The experiment in a line: Induction of morphological changes in human HL-60 cells assessed as variations in nuclear segmentation at 10 uM. The series is classed as functional, cell-based.
Series [19] deals with HL-60. Nature of the series: Induction of morphological changes in human HL-60 cells assessed as appearance of wider and lighter cytoplasm at 10 uM. The series is classed as functional, cell-based.
For series [20], the system named is HL-60. The experiment in a line: Induction of morphological changes in human HL-60 cells assessed as appearance of granules and vacuoles at 10 uM. The series is classed as functional, cell-based.

For `COc1ccccc1-c1cc(NC=O)c2ncc(-c3ccc4c(C)nn(C)c4c3)n2c1`, the solubility thermodynamic in series [1] is 2 µM (≈ 0.823 µg/mL).

For `CCCCCCCCCCCCCC(=O)O[C@@H]1[C@@H](C)[C@@]2(O)[C@@H](C=C(CO)C[C@]3(O)C(=O)C(C)=C[C@@H]23)[C@@H]2C(C)(C)[C@]12OC(C)=O`, the outcome with HL-60 [2], in the series on THP-1 [3], in the series on OCI-AML-3 [4], in the series with KG-1 [5], in the series on ME-1 [6] and with Kasumi 1 [7] was Active.

On to `COc1ccc(-c2cnc3ncc(-c4ccccc4OC)cn23)cc1OC`, for which the remaining at 0.75 h in [8] is 70%. Moreover, the solubility thermodynamic in [1] was found to be 1 µM (≈ 0.361 µg/mL).

In the case of `COc1ccc(-c2cnc3c(NC=O)cc(-c4ccccc4OC)cn23)cc1C#N`, the solubility thermodynamic in series [1] was found to be 2 µM (≈ 0.797 µg/mL).

Take `CNc1nc(-c2ccccc2OC)cn2c(-c3ccc(OC)c(OC)c3)cnc12`: in series [1], the solubility thermodynamic was determined as 39 µM (≈ 15.2 µg/mL).

`COc1ccc(-c2cnc3c(NS(C)(=O)=O)cc(-c4ccccc4OC)cn23)cc1OC`: the solubility thermodynamic in [1] worked out at 43 µM (≈ 19.5 µg/mL).

On to `Cc1cc(C#N)ccc1-c1cc(NS(C)(=O)=O)c2ncc(-c3ccc4c(cnn4C)c3)n2c1`, for which, in series [1], the solubility thermodynamic worked out at 26 µM (≈ 11.9 µg/mL).

Regarding `CNc1cc(-c2ccccc2OC)cn2c(-c3ccc(OC)c(OC)c3)cnc12`, the remaining at 0.75 h in series [8] stood at 81%. For the same compound, the solubility thermodynamic in series [1] amounted to 8 µM (≈ 3.12 µg/mL).

As for `COc1cc(F)ccc1-c1cc(NS(C)(=O)=O)c2ncc(-c3ccc4c(cnn4C)c3)n2c1`, the solubility thermodynamic in series [1] amounted to 12 µM (≈ 5.59 µg/mL).

Take `COc1ccc(-c2cnc3c(NC(C)=O)cc(-c4ccccc4OC)cn23)cc1OC`: the remaining at 0.75 h in series [8] came out at 1%. Further, the solubility thermodynamic in [1] is 39 µM (≈ 16.3 µg/mL).

For `COc1ccc(-c2cnc3c(N(C)C=O)cc(-c4ccccc4OC)cn23)cc1OC`, in series [8], the remaining at 0.75 h was found to be 46%. For the same compound, the solubility thermodynamic in [1] was 1 µM (≈ 0.417 µg/mL).

Turning to `COc1ccc(-c2cnc3c(N)cc(-c4ccccc4OC)cn23)cc1OC`, in series [1], the solubility thermodynamic turned out to be 38 µM (≈ 14.3 µg/mL).

For the compound `COc1ccc(-c2cnc3c(NC=O)cc(-c4ccccc4OC)cn23)cc1OC`, the figures for the Activity result in the series with HL-60 [9] and in the series on HL-60 [10] were “<=78%” and 14%, respectively. The result with HL-60 [11], in the series with THP-1 [12], with OCI-AML-3 [13], in the series on KG-1 [14], with ME-1 [15] and with Kasumi 1 [16] was Active. In addition, the result in the series with HL-60 [17], in the series on HL-60 [18], with HL-60 [19] and in the series on HL-60 [20] was Active. Further, the remaining at 0.75 h in [8] amounted to 28%. Also, the solubility thermodynamic in series [1] came to 37 µM (≈ 14.9 µg/mL).

Consider `COc1ccccc1-c1cc(NC=O)c2ncc(-c3ccc4nn(C)c(C)c4c3)n2c1`, for which, in series [1], the solubility thermodynamic is 4 µM (≈ 1.65 µg/mL).

Consider `COc1ccccc1-c1cc(NC=O)c2ncc(-c3ccc4nc(C)oc4c3)n2c1`, for which the solubility thermodynamic in [1] was 2 µM (≈ 0.797 µg/mL).

Take `Cc1ccccc1-c1cc(NS(C)(=O)=O)c2ncc(-c3ccc4c(cnn4C)c3)n2c1`: the solubility thermodynamic in [1] turned out to be 13 µM (≈ 5.61 µg/mL).

Turning to `COc1ccc(-c2cnc3c(C(N)=O)cc(-c4ccccc4OC)cn23)cc1OC`, the solubility thermodynamic in series [1] amounted to 12 µM (≈ 4.84 µg/mL).

Take `CC1=C(c2cc(NS(C)(=O)=O)c3ncc(-c4ccc5c(cnn5C)c4)n3c2)CCCC1`: in [1], the solubility thermodynamic was determined as 26 µM (≈ 11.3 µg/mL).

On to `COc1cc(C#N)ccc1-c1cc(NS(C)(=O)=O)c2ncc(-c3ccc4c(cnn4C)c3)n2c1`, for which, in series [1], the solubility thermodynamic worked out at 2 µM (≈ 0.945 µg/mL).

Take `COc1ccccc1-c1cc(NC=O)c2ncc(-c3ccc4c(c3)c(C)nn4C)n2c1`: the solubility thermodynamic in series [1] was found to be 6 µM (≈ 2.47 µg/mL).

`COc1ccc(-c2cnc3c(N4CCOCC4)nc(-c4ccccc4OC)cn23)cc1OC`: the solubility thermodynamic in [1] is 4 µM (≈ 1.79 µg/mL).

For `COc1ccc(-c2cnc3ccc(-c4ccccc4OC)cn23)cc1OC`, the solubility thermodynamic in series [1] worked out at 156 µM (≈ 56.2 µg/mL).

As to `COc1ccc(-c2cnc3c(NC=O)nc(-c4ccccc4OC)cn23)cc1OC`, in series [8], the remaining at 0.75 h stood at 0.5%. Besides, in [1], the solubility thermodynamic came to 1 µM (≈ 0.404 µg/mL).

Turning to `COc1ccc(-n2cnc3cnc(-c4ccccc4OC)cc32)cc1OC`, the solubility thermodynamic in series [1] was determined as 200 µM (≈ 72.3 µg/mL).

With `COc1ccccc1-c1cc(NS(C)(=O)=O)c2ncc(-c3ccc4c(cnn4C)c3)n2c1`, the solubility thermodynamic in series [1] is 18 µM (≈ 8.06 µg/mL).

For `Cn1ncc2cc(-c3cnc4c(NS(C)(=O)=O)cc(-c5ccc(F)cc5Cl)cn34)ccc21`, in series [1], the solubility thermodynamic turned out to be 9 µM (≈ 4.23 µg/mL).

Turning to `COc1ccccc1-c1cc(NC=O)c2ncc(-c3ccccc3)n2c1`, in [1], the solubility thermodynamic amounted to 2 µM (≈ 0.687 µg/mL).

Regarding `COc1ccc(-c2cnc3c(N4CC5(COC5)C4)nc(-c4ccccc4OC)cn23)cc1OC`, the solubility thermodynamic in series [1] came out at 26 µM (≈ 11.9 µg/mL).

Turning to `COc1ccccc1-c1cc(NC=O)c2nccn2c1`, in series [1], the solubility thermodynamic was over 200 µM.

Regarding `COc1ccccc1-c1cc(NC=O)c2ncc(-c3ccc4c(cnn4C)c3)n2c1`, the solubility thermodynamic in series [1] is 2 µM (≈ 0.795 µg/mL).

These data come from ChEMBL document CHEMBL5620396, “Phenotypic screening identifies a trisubstituted imidazo[1,2-a]pyridine series that induces differentiation in multiple AML cell lines” (Eur J Med Chem, 2023).
